What was measured:
Aβ1-42 = target: T1, Aβ1-42 (Homo sapiens, UniProt P05067); assay: Kinetic Thioflavin T (ThT) aggregation assay of Aβ1-42; format: biochemical; conditions: 20 μM Aβ1-42, kinetic ThT assay
T1 construct: Aβ^1-42 (AnaSpec, lot 45685); purchased AnaSpec
Experimental: Aβ^1-42 (1.0 mg) was either pretreated with HFIP in the same manner as Aβ^1-40 or this step was omitted. After removing HFIP, when appropriate, Aβ^1-42 was dissolved in 1% NH3 (aq.) (200 μL) and sonicated for 1 min. The solution was diluted with Tris-HCl (5.7 mL, 20 mM, pH 7.4), the pH adjusted to 7.4 with concentrated HCl (aq.) and the solution filtered using a syringe filter (0.2 μm). Prior to use in the ThT aggregation assay, the solution was diluted with an equal volume of 8 μM Thioflavin T (ThT) in Tris-HCl (20 mM, pH 7.4, 300 mM NaCl).
Aliquots (200 μL) of Aβ^1-40, Aβ^1-42, tau441 or α-synuclein with ThT or ThS were added to wells of a black polystyrene 96-well plate, followed by 2 μL of a compound in DMSO (various concentrations), or DMSO alone (controls). For α-synuclein, sodium dodecyl sulfate solution (2.0 μL, 30 mM) was also added to each well to induce aggregation. Incubations were performed in triplicate and were taken to contain 20 μM Aβ^1-40 or Aβ^1-42, 6 μM tau441 or 4 μM α-synuclein. Plates were covered with clear polystyrene lids and incubated at 37° C. in a GENios microplate reader obtained from Tecan Group Limited, Mannedorf, Zurich. For Aβ^1-40, tau441 and α-synuclein, fluorescence readings (λex=450 nm, λem=480 nm) were taken every 15 min., after first shaking at high intensity for 15 sec. and allowing to settle for 10 sec. before each reading. For Aβ^1-42, readings were taken every 5 min.
The absorbance of each compound was measured under the conditions used during testing, though on ten times the scale (2 mL), to ensure no significant quenching interfered with the assay. This step was also used to identify whether compounds were completely soluble under testing conditions.
FIG. 7 depicts inhibition of Aβ^1-42 aggregation by various synthesized bi-aromatic compounds and positive controls morin (Ono K, Yoshiike Y, Takashima A, Hasegawa K, Naiki H, Yamada M. 2003. J Neurochem 87:172-81) and RS-0406 (Walsh D M, Townsend M, Podlisny M B, Shankar G M, Fadeeva J V, Agnaf O E, Hartley D M, Selkoe D J. 2005. J Neurosci 25:2455-62) in the kinetic ThT assay. Same conditions as for Aβ^1-40, FIG. 1. Compound concentrations were 100 μM in (A), 20 μM in (B), except for RS-0406, which was tested at 100 μM, and 20 μM in (C).

Aβ1-40 = target: T2, Aβ1-40 (Homo sapiens, UniProt P05067); assay: Circular dichroism studies of Aβ1-40; format: biochemical; conditions: 40 μM Aβ1-40, 200 μM compound, pH 7.4, 37° C.
T2 construct: Aβ^1-40 (AnaSpec, San Jose, Calif., lots 14212, 34862 and 34889); purchased AnaSpec, San Jose, Calif
Experimental: Aliquots (220 μL) of pretreated Aβ^1-40 (40 μM in 20 mM Tris-HCl, pH 7.4) were added directly to 1 mm quartz circular dichroism (CD) cells, followed by 2.2 μL compound (of varying concentration) in methanol or methanol alone (controls). Solutions were incubated at 37° C. for up to 6 days. CD scans were performed on a J-810 spectropolarimeter (obtained from Jasco Corporation, Tokyo, Japan) between 190 and 250 nm, with a resolution of 0.1 nm and bandwidth of 1 nm. Ten scans were obtained for each reading. Spectra had background CD of the buffer subtracted and were left unsmoothed. Readings were performed at 37° C.
FIG. 6 depicts circular dichroism (CD) of Aβ^1-40 alone (A) and in the presence of 0j (B) and morin (C). Conditions: 40 μM Aβ^1-40, 200 μM compound (B,C), pH 7.4, Tris-HCl (20 mM), 1% MeOH. Prior to experiment, Aβ^1-40 pretreated with 1,1,1,3,3,3-hexafluoroisopropanol (HFIP).

T2 sequence (P05067 672-711 limits assumed): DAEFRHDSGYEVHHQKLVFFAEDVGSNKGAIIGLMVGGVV
T1 sequence (P05067 672-713 limits assumed): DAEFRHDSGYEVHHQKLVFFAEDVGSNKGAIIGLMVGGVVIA

inhibition of Aβ1-42 aggregation, as measured by ThT fluorescence (Aβ1-42) | random coil (RC)→β-sheet transition of Aβ1-40 by circular dichroism (Aβ1-40) | Structure (SMILES)
inhibition | – | O=c1c(O)c(-c2ccc(O)cc2O)oc2cc(O)cc(O)c12 [morin]
– | this transition was inhibited | O=C(O)c1ccc2[nH]cc(-c3c[nH]c4ccc(Br)cc34)c2c1 [0c, 3-(5-bromo-indol-3-yl)-indole-5-carboxylic Acid]
